Calls of active or inactive are those of the source. The calls are words filed in the database; no cut-off is given here. *1 amine or outer side, *2 acyl side, *3 side chain or, on linkers, in order; H or OH if unused. Where a SMILES comes first, the peptide text is derived from it. [ ]: non-standard residue; d: D form. The star is where a group is joined. NH(CH2)2O(CH2)2NH2 = NCCOCCN*; ΔPro = O=C(O)[C@@H]1C=CCN1; CO = O=C([*:1])[*:2]; Bn = c1ccc(C*)cc1; GABA = NCCCC(=O)O; βAla = NCCC(=O)O
Assays:
[1] = tested on: HL-60; experiment: Induction of apoptosis in human HL60 cells assessed as reduction in accumulation at G0/G1 phase after 24 hrs by propidium iodide staining based flow cytometric analysis; format: functional, cell-based
[2] = tested on: HL-60; experiment: Induction of apoptosis in human HL60 cells assessed as accumulation at subG0/G1 phase at 50 uM after 24 hrs by Annexin V and propidium iodide staining based flow cytometric analysis (reference value: 3.14 +/- 0.9 %); format: functional
[3] = tested on: HL-60; experiment: Induction of apoptosis in human HL60 cells assessed as reduction in accumulation at G2/M phase after 24 hrs by propidium iodide staining based flow cytometric analysis; format: functional, cell-based
[4] = tested on: HL-60; experiment: Induction of apoptosis in human HL60 cells assessed as accumulation at subG0/G1 phase after 24 hrs by Annexin V and propidium iodide staining based flow cytometric analysis; format: functional, cell-based
[5] = tested on: HL-60; experiment: Induction of apoptosis in human HL60 cells assessed as loss of mitochondrial inner transmembrane potential at 50 uM after 24 hrs by TMRM dye based flow cytometric analysis; format: functional, cell-based
[6] = molecular target: T1, Tubulin (Sus scrofa) (UniProt P02554+P02550); experiment: Induction of pig tubulin polymerization at 10 uM after 60 mins by spectroscopic analysis; format: protein assay
T1 sequence (P02550 whole entry, looked up): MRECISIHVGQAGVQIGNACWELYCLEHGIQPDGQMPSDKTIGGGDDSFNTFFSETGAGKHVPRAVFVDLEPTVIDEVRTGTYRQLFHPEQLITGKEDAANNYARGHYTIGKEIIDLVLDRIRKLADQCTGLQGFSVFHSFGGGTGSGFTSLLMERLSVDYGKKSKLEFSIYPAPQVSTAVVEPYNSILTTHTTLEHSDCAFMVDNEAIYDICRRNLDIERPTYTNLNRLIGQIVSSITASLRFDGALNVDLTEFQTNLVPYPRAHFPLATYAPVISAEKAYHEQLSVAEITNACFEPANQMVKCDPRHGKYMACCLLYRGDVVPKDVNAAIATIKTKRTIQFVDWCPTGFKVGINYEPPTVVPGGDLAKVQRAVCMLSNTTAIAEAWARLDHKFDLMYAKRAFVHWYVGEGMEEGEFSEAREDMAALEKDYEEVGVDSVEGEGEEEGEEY
T1 sequence (P02554 whole entry, looked up): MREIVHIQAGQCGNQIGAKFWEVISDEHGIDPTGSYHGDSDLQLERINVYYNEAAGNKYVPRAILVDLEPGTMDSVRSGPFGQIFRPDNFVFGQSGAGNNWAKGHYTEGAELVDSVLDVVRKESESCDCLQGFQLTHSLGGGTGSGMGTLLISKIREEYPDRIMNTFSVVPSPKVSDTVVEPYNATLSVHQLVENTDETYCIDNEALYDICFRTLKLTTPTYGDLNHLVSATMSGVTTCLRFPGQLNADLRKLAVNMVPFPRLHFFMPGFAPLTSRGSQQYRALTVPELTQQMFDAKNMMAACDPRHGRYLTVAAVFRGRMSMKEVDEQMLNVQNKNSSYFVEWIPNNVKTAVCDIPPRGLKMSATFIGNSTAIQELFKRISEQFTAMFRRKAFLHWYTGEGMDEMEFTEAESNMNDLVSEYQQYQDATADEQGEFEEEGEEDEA

[7] = tested on: RBL-2H3; experiment: Induction of tubulin polymerization in rat RBL2H3 cells assessed as induction of alteration of microtubule network at 50 uM preincubated for 16 hrs measured after 24 hrs by confocal laser scanning microscopic analysis; format: cell-based
[8] = tested on: MCF7; experiment: Induction of apoptosis in human MCF7 cells assessed as accumulation at subG0/G1 phase at 50 uM after 48 hrs by Annexin V and propidium iodide staining based flow cytometric analysis (reference value: 8.5 +/- 2.4 %); format: functional
[9] = Induction of apoptosis in human 501mel cells assessed as accumulation at subG0/G1 phase at 50 uM after 72 hrs by Annexin V and propidium iodide staining based flow cytometric analysis (reference value: 9 +/- 1.8%); format: functional
[10] = tested on: B16-F10; experiment: Induction of apoptosis in mouse B16F10 cells assessed as accumulation at subG0/G1 phase at 50 uM after 24 hrs by Annexin V and propidium iodide staining based flow cytometric analysis (reference value: 3.7 +/- 3 %); format: functional
[11] = Induction of apoptosis in human EBV-B cells assessed as accumulation at subG0/G1 phase at 25 uM after 24 hrs by Annexin V and propidium iodide staining based flow cytometric analysis (reference value: 1.6 %); format: functional
[12] = tested on: B16-F1; experiment: Induction of apoptosis in mouse B16-F1 cells assessed as accumulation at subG0/G1 phase at 50 uM after 24 hrs Annexin V and propidium iodide staining based flow cytometric analysis (reference value: 1.9 +/- 1.6 %); format: functional
[13] = tested on: HL-60; experiment: Induction of apoptosis in human HL60 cells assessed as accumulation at subG0/G1 phase at 25 uM after 24 hrs by Annexin V and propidium iodide staining based flow cytometric analysis (reference value: 5 %); format: functional
[14] = tested on: Jurkat; experiment: Induction of apoptosis in human Jurkat cells assessed as accumulation at subG0/G1 phase at 25 uM after 24 hrs by Annexin V and propidium iodide staining based flow cytometric analysis (reference value: 3.9 %); format: functional
[15] = tested on: A-375; experiment: Induction of apoptosis in human A375 cells assessed as accumulation at subG0/G1 phase at 50 uM after 72 hrs by Annexin V and propidium iodide staining based flow cytometric analysis (reference value: 7 +/- 1 %); format: functional
[16] = molecular target: T1, Tubulin (Sus scrofa); experiment: Induction of pig tubulin polymerization at 100 uM after 60 mins by spectroscopic analysis; format: protein assay
[17] = tested on: A-375; experiment: Induction of apoptosis in human A375 cells assessed as accumulation at subG0/G1 phase at 50 uM after 24 hrs by Annexin V and propidium iodide staining based flow cytometric analysis (reference value: 7 +/- 1 %); format: functional, cell-based
[18] = tested on: A-375; experiment: Induction of apoptosis in human A375 cells assessed as accumulation at subG0/G1 phase at 100 uM after 72 hrs by Annexin V and propidium iodide staining based flow cytometric analysis; format: functional, cell-based
[19] = tested on: HL-60; experiment: Induction of apoptosis in human HL60 cells assessed as accumulation at subG0/G1 phase at 100 uM after 24 hrs by Annexin V and propidium iodide staining based flow cytometric analysis (reference value: 3.14 +/- 0.9 %); format: functional
[20] = species on record: Homo sapiens; experiment: Induction of apoptosis in human 501mel cells assessed as accumulation at subG0/G1 phase at 100 uM after 72 hrs by Annexin V and propidium iodide staining based flow cytometric analysis; format: functional, cell-based
[21] = species on record: Homo sapiens; experiment: Induction of apoptosis in human 501mel cells assessed as accumulation at subG0/G1 phase at 50 uM after 24 hrs by Annexin V and propidium iodide staining based flow cytometric analysis (reference value: 9 +/- 1.8 %); format: functional, cell-based

CC[C@H](C)[C@@H]1NC(=O)NCCOCCCNC(=O)[C@H](Cc2ccccc2)NC(=O)[C@H](Cc2ccc(OCc3ccccc3)cc2)NC(=O)[C@@H]2C=CCN2C(=O)[C@H](C(C)C)NC1=O
Activity [1]: Dose-dependent effect
Activity [2]: 77%
Activity [3]: Dose-dependent effect
Activity [4]: Dose-dependent effect
Activity [5]: Active

CC[C@H](C)[C@@H]1NC(=O)NCCOCCNC(=O)[C@H](Cc2ccccc2)NC(=O)[C@H](Cc2ccc(O)cc2)NC(=O)[C@@H]2C=CCN2C(=O)[C@H](C(C)C)NC1=O
Activity [2]: 5%

CC(=O)O[C@H]1C(=O)[C@@]2(C)[C@H]([C@H](OC(=O)c3ccccc3)[C@]3(O)C[C@H](OC(=O)[C@H](O)[C@@H](NC(=O)c4ccccc4)c4ccccc4)C(C)=C1C3(C)C)[C@]1(OC(C)=O)CO[C@@H]1C[C@@H]2O
Activity [6]: Active

CC[C@H](C)[C@H](NC(=O)[C@@H]1CCCN1C(=O)[C@@H]1CCCN1C(C)=O)C(=O)N[C@H](C(=O)N1CCC[C@H]1C(=O)N[C@@H](Cc1ccc(O)cc1)C(=O)N[C@@H](Cc1ccccc1)C(=O)N(C)C)C(C)C (Ac-PPIVPYF-NMe2)
Activity [2]: inactive

CC[C@H](C)[C@H](NC(=O)[C@@H]1CCCN1C(=O)[C@@H]1CCCN1C(=O)CCCN)C(=O)N[C@H](C(=O)NCC(=O)N[C@@H](Cc1ccc(O)cc1)C(=O)N[C@@H](Cc1ccccc1)C(=O)O)C(C)C (H-[GABA]PPIVGYF-OH)
Activity [2]: inactive

CC[C@H](C)[C@H](NC(=O)[C@@H]1CCCN1C(=O)[C@@H]1CCCN1C(=O)CCCN)C(=O)N[C@H](C(=O)N1CCC[C@H]1C(=O)N[C@@H](Cc1ccc(O)cc1)C(=O)N[C@@H](Cc1ccccc1)C(=O)O)C(C)C (H-[GABA]PPIVPYF-OH)
Activity [2]: inactive

CC[C@H](C)[C@H](NC(=O)[C@@H]1CCCN1C(=O)[C@@H]1CCCN1C(=O)CCCN)C(=O)N[C@H](C(=O)N1CC=C[C@H]1C(=O)N[C@@H](Cc1ccc(O)cc1)C(=O)N[C@@H](Cc1ccccc1)C(=O)O)C(C)C (H-[GABA]PPIV[ΔPro]YF-OH)
Activity [2]: inactive

CC[C@H](C)[C@H](NC(=O)[C@@H]1CCCN1C(=O)[C@@H]1CCCN1C(=O)CCN)C(=O)N[C@H](C(=O)NCC(=O)N[C@@H](Cc1ccc(O)cc1)C(=O)N[C@@H](Cc1ccccc1)C(=O)O)C(C)C (H-[βAla]PPIVGYF-OH)
Activity [2]: inactive

CC[C@H](C)[C@@H]1NC(=O)[C@@H]2CCCN2C(=O)[C@@H]2CCCN2C(=O)CNC(=O)[C@H](Cc2ccccc2)NC(=O)[C@H](Cc2ccc(O)cc2)NC(=O)[C@@H]2CCCN2C(=O)[C@H](C(C)C)NC1=O (cyclo(FGPPIVPY))
Activity [1]: Dose-dependent effect
Activity [2]: 42%
Activity [3]: Dose-dependent effect
Activity [7]: Active
Activity [4]: Dose-dependent effect
Activity [5]: Active
Activity [8]: 17.3%

CC[C@H](C)[C@@H]1NC(=O)[C@@H]2CCCN2C(=O)[C@@H]2CCCN2C(=O)CCCNC(=O)[C@H](Cc2ccccc2)NC(=O)[C@H](Cc2ccc(O)cc2)NC(=O)CNC(=O)[C@H](C(C)C)NC1=O (cyclo(F[GABA]PPIVGY))
Activity [2]: 11%

CC[C@H](C)[C@@H]1NC(=O)[C@@H]2CCCN2C(=O)[C@@H]2CCCN2C(=O)CCCNC(=O)[C@H](Cc2ccccc2)NC(=O)[C@H](Cc2ccc(O)cc2)NC(=O)[C@@H]2CCCN2C(=O)[C@H](C(C)C)NC1=O (cyclo(F[GABA]PPIVPY))
Activity [9]: 17%
Activity [1]: Dose-dependent effect
Activity [2]: 56.6%
Activity [3]: Dose-dependent effect
Activity [7]: Active
Activity [10]: 13.6%
Activity [11]: 11.4%
Activity [12]: 13.9%
Activity [13]: 17%
Activity [4]: Dose-dependent effect
Activity [14]: 12%
Activity [5]: Active
Activity [15]: 48%
Activity [8]: 11.8%

CC[C@H](C)[C@@H]1NC(=O)[C@@H]2CCCN2C(=O)[C@@H]2CCCN2C(=O)CCCNC(=O)[C@H](Cc2ccccc2)NC(=O)[C@H](Cc2ccc(O)cc2)NC(=O)[C@@H]2C=CCN2C(=O)[C@H](C(C)C)NC1=O (cyclo(F[GABA]PPIV[ΔPro]Y))
Activity [2]: 7%

CC[C@H](C)[C@@H]1NC(=O)[C@@H]2CCCN2C(=O)[C@@H]2CCCN2C(=O)CCNC(=O)[C@H](Cc2ccccc2)NC(=O)[C@H](Cc2ccc(O)cc2)NC(=O)[C@@H]2CCCN2C(=O)[C@H](C(C)C)NC1=O (cyclo(F[βAla]PPIVPY))
Activity [16]: Active
Activity [1]: Dose-dependent effect
Activity [2]: 33.1%
Activity [3]: Dose-dependent effect
Activity [4]: Dose-dependent effect
Activity [5]: Active
Activity [8]: 18.9%

CC[C@H](C)[C@H](NC(=O)NCCOCCN)C(=O)N[C@H](C(=O)N1CC=C[C@H]1C(=O)N[C@@H](Cc1ccc(OCc2ccccc2)cc1)C(=O)N[C@@H](Cc1ccccc1)C(=O)O)C(C)C ({NH(CH2)2O(CH2)2NH2-CO}-IV[ΔPro]Y(Bn)F-OH)
Activity [2]: inactive

Ac-LVPPPPIVPYF-NH2
Activity [2]: inactive
Activity [17]: inactive
Activity [10]: inactive
Activity [18]: inactive
Activity [11]: 2.3%
Activity [19]: 6.5%
Activity [12]: inactive
Activity [13]: 7.7%
Activity [14]: 4%
Activity [20]: inactive
Activity [21]: inactive
Activity [8]: inactive

Ac-LVPPPPIVPYF-OH
Activity [2]: inactive
Activity [19]: 7.2%

Ac-PPIVPYF-OH
Activity [2]: inactive

Ac-VPPPPI-NH2
Activity [2]: inactive

H-GPPIVPYF-OH
Activity [2]: inactive
